Positions of bridges follow the written chain, without caps; N, C: chain ends. Non-standard residues stand in square brackets, D forms with d. Residues, ends and D or L forms follow the SMILES beside them. Nle = CCCC[C@H](N)C(=O)O
T1: HVEM-His protein (UniProt Q92956 39-202, labelled with RED-tris-NTA 2nd Generation dye on the His tag (spectral shift only))
T1 construct: Herpes virus entry mediator (HVEM); No catalogue number printed; also called herpes virus entry mediator; source: bought: ACROBiosystems
T1 sequence (looked up): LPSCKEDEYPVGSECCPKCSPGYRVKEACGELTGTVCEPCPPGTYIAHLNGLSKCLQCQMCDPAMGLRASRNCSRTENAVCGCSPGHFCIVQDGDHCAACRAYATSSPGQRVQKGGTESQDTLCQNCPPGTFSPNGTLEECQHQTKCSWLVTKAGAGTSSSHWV


How the values were obtained:
[1] = Peptide stability in medium (Jurkat E6.1 cell supernatant); assay type: in vitro ADME; conditions: human, Jurkat E6.1 cell supernatant (conditioned culture medium), Jurkat E6.1 cell supernatant (RPMI 1640, 10% FBS), 1.5 mg/mL peptide, 37 °C with stirring, RP-HPLC peak area vs peptide in water at time 0, triplicate
Experimental: The inhibitory effects of the peptides were also evaluated using cell line-based platform, but before performing this tests, the stability of peptides in medium used in co-culture and cytotoxicity towards cell lines used in the experiments had to be determined. After 24 h of incubation (the time when the peptides are incubated with cells), there is a clear difference in stability between peptides based on one of the interaction centres (light1 and 2 – stability is 88% and 77% respectively) and between those based on the other centre (light3, 4 and 3_E178L – stability ranging from 49% to 29%). However, all peptides, despite some degradation, are present in the sample during the experiment (Figure S5).
HVEM light1 light light light _E178L
Figure S8 . SpS binding check experiments for selected LIGHT-derived peptides and HVEM compared to negative control (HVEM protein without any ligand). Dotted line represents three times the standard deviation range. […]
experiments. […]
Peptide stability was assessed using the supernatant from the Jurkat E6.1 cell line. […] The samples were analyzed by reverse-phase high-performance liquid chromatography (RP-HPLC) on a Kromasil C8 column ([…] × 4.6 mm, 5 μm) using a gradient of 5% to 100% solvent B over 60 minutes. […]
The cytotoxic effects of the peptides were evaluated on two cell lines: Jurkat E6.1 and TCS-Ctrl (a modified BW5147 cell line). […]

HVEM/LIGHT complex = test: Competitive ELISA, inhibition of HVEM/LIGHT complex formation; assay type: biochemical, human; conditions: across all tested concentrations (50, 12.5, 3.125 µM)
Experimental: To assess the inhibitory properties of the peptides the ELISA was conducted. Based on the obtained results, it can be concluded that the inhibitory properties of the peptides are strongly correlated with their affinity to HVEM as determined by theoretical methods, as well as with those measured by SpS.
ELISA was conducted using transparent polystyrene 96-well plates (Brand, Wertheim, Germany). Wells were coated with HVEM-His protein at concentration 6 µg/mL dissolved in PBS-T (100 µL per well) and incubated overnight at 4 °C. Unbound sites on the wells by HVEM were blocked with 5% bovine serum albumin (BSA) in PBS-T (200 µL per well). Peptides at three concentrations 50 µM, 12.5 µM, and 3.125 µM dissolved in PBS-T were added and incubated (200 µL per well). […] In the next step horseradish peroxidase (HRP)-conjugated goat antibody (Bio-Rad, Hercules, USA) at dilution 1:3000 in PBS-T (100µL per well) was applied. After each step, wells were washed five times with 200 µL of PBS-T. Incubations were carried out at 37 °C for 2 h, except for the antibody, which was incubated for 1 h. Finally, 200 µL of TMB substrate (Thermo Fisher Scientific,Waltham, MA, USA) was added, and after 15 min of incubation in the dark, absorbance was measured at 492 nm and 650 nm using an Infinite M200 Pro reader (Tecan, Switzerland). The negative control consisted of PBS-T buffer without peptides, while the positive control was mouse anti-human HVEM antibodies (1 µg/well, Bio-Rad, Hercules, CA, USA; #MCA6072GA). Each experiment was performed in three biological replicates, each consisting of three technical replicates and data were analyzed using one-way ANOVA with Dunnett’s post-hoc test in GraphPad Prism (San Diego, USA).

HVEM-His protein = molecular target: T1, HVEM-His protein; test: spectral shift (SpS); Monolith X; HVEM-His labelled with His-Tag Labeling Kit RED-tris-NTA 2nd Generation, final 50 nM; peptides 2 µM to 6.1 pM; PBS-T (0.05% Tween-20, 0.3 M NaCl, pH 7.4); fluorescence ratio 670/650 nm; 25 °C; apparent Kd (peptides aggregated at higher concentrations); conditions: both partners purified

remaining at 24 h, 1.5 mg/mL [1] [%]	Molecule	also measured
88	CCCC[C@H](NC(=O)[C@H](Cc1ccccc1)NC(=O)[C@H](C)NC(=O)CNC(=O)[C@@H]1CSSC[C@H](NC(=O)[C@@H](NC(=O)[C@@H](NC(=O)[C@H](CCC(=O)O)NC(=O)[C@H](CCC(=O)O)NC(=O)CNC(=O)[C@H](C)NC(=O)[C@H](CCC(=O)O)NC(C)=O)C(C)C)C(C)C)C(=O)N[C@@H](CCCNC(=N)N)C(=O)N[C@@H](C(C)C)C(=O)N[C@@H](CC(C)C)C(=O)N[C@@H](CC(=O)O)C(=O)N[C@@H](CCC(=O)O)C(=O)N[C@@H](CCCNC(=N)N)C(=O)N[C@@H](CC(C)C)C(=O)N[C@@H](C(C)C)C(=O)N[C@@H](CCCNC(=N)N)C(=O)N[C@@H](CC(C)C)C(=O)N[C@@H](CCCNC(=N)N)C(=O)N[C@@H](CC(=O)O)C(=O)NCC(=O)N[C@@H]([C@@H](C)O)C(=O)N[C@@H](CCCNC(=N)N)C(=O)N[C@@H](CO)C(=O)N[C@@H](Cc2ccc(O)cc2)C(=O)N1)C(=O)N[C@H](C(N)=O)C(C)C [light1] (Ac-EAGEEVVCRVLDERLVRLRDGTRSYCGAF[Nle]V-NH2; disulfide 8-26)	
77	CC(=O)N[C@@H](CCC(=O)O)C(=O)N[C@H]1CSSC[C@@H](C(=O)N[C@H](C(N)=O)C(C)C)NC(=O)[C@H](Cc2ccccc2)NC(=O)[C@H](C)NC(=O)CNC(=O)[C@H](Cc2ccccc2)NC(=O)[C@H](Cc2ccc(O)cc2)NC(=O)[C@H](CO)NC(=O)[C@H](CCCNC(=N)N)NC(=O)[C@H]([C@@H](C)O)NC(=O)CNC(=O)[C@H](CC(=O)O)NC(=O)[C@H](CCCNC(=N)N)NC(=O)[C@H](CC(C)C)NC(=O)[C@H](CCCNC(=N)N)NC(=O)[C@H](C(C)C)NC(=O)[C@H](CC(C)C)NC(=O)[C@H](CCCNC(=N)N)NC(=O)[C@H](CCC(=O)O)NC(=O)[C@H](CC(=O)O)NC(=O)[C@H](CC(C)C)NC(=O)[C@H](C(C)C)NC(=O)[C@H](CCCNC(=N)N)NC(=O)[C@H](C(C)C)NC(=O)[C@H](C(C)C)NC(=O)[C@H](C(C)C)NC(=O)[C@H](CCC(=O)O)NC(=O)[C@H](CCC(=O)O)NC(=O)CNC1=O [light2] (Ac-ECGEEVVVRVLDERLVRLRDGTRSYFGAFCV-NH2; disulfide 2-30)	
	CC[C@H](C)[C@H](NC(=O)[C@@H](NC(C)=O)[C@@H](C)O)C(=O)N[C@H]1CSSC[C@@H](C(=O)N[C@@H](CCC(N)=O)C(=O)N[C@@H](CO)C(N)=O)NC(=O)[C@H](CO)NC(=O)[C@H](C(C)C)NC(=O)[C@H](CC(C)C)NC(=O)[C@H](CC(C)C)NC(=O)[C@H](CCC(=O)O)NC(=O)[C@H](CC(C)C)NC(=O)[C@H](CCC(=O)O)NC(=O)[C@H](CCC(=O)O)NC(=O)[C@@H]2CCCN2C(=O)[C@H](Cc2ccc(O)cc2)NC(=O)[C@H](CCCNC(=N)N)NC(=O)[C@@H]2CCCN2C(=O)[C@H]([C@@H](C)O)NC(=O)[C@H](CCCNC(=N)N)NC(=O)[C@H](CCCCN)NC(=O)[C@H](Cc2ccc(O)cc2)NC(=O)[C@H](CC(C)C)NC(=O)CNC(=O)[C@H](Cc2c[nH]cn2)NC1=O [light4] (Ac-TICHGLYKRTPRYPEELELLVSCQS-NH2; disulfide 3-23)	inhibition of HVEM/LIGHT complex formation (HVEM/LIGHT complex): below 10%
	Ac-TICHGLYKRTPRYPEELELLVSCQS-NH2 (disulfide 3-23; SMILES CC[C@H](C)[C@H](NC(=O)[C@@H](NC(C)=O)[C@@H](C)O)C(=O)N[C@H]1CSSC[C@@H](C(=O)N[C@@H](CCC(N)=O)C(=O)N[C@@H](CO)C(N)=O)NC(=O)[C@H](CO)NC(=O)[C@H](C(C)C)NC(=O)[C@H](CC(C)C)NC(=O)[C@H](CC(C)C)NC(=O)[C@H](CCC(=O)O)NC(=O)[C@H](CC(C)C)NC(=O)[C@H](CCC(=O)O)NC(=O)[C@H](CCC(=O)O)NC(=O)[C@@H]2CCCN2C(=O)[C@H](Cc2ccc(O)cc2)NC(=O)[C@H](CCCNC(=N)N)NC(=O)[C@@H]2CCCN2C(=O)[C@H]([C@@H](C)O)NC(=O)[C@H](CCCNC(=N)N)NC(=O)[C@H](CCCCN)NC(=O)[C@H](Cc2ccc(O)cc2)NC(=O)[C@H](CC(C)C)NC(=O)CNC(=O)[C@H](Cc2c[nH]cn2)NC1=O, Residues 161-185 of LIGHT with two residues substituted by cysteines for a disulfide bond; also called peptide 4; source: synthetic peptide (SPPS, RP-HPLC; disulfide bond formed by air oxidation)) [light4]	Kd (HVEM-His protein): 1720 nM

From article PMC12623744 (Scientific Reports, 2025)
